Laboratory results from patent publication US10092506B2, “Encapsulation of lipophilic or amphiphilic therapeutic agents in nano-emulsion” (COMMISSARIAT A L'ENERGIE ATOMIQUE ET AUX ENERGIES …, priority 2008, dated 2018).

Columns and labels:
[1] = fluorescence quantum yield with reference to Nile Blue perchlorate in ethanol; format: physicochemical; details: in toluene
Description: The fluorescence quantum yield of various photosensitizers formulated in a nano-emulsion and in solvent was measured with reference to Nile Blue perchlorate in ethanol, λexc 605 nm (Fref=0.27).

[2] = physico-chemical behaviour of taxol under nano-emulsion preparation and analysis conditions; format: physicochemical; details: after ultrasound, heat treatment (4 h at 60° C.) and analytical conditions (acetonitrile/water mixture)

| Structure (SMILES) | Fluorescence quantum yield F [1] | degradation of taxol [2] |
| --- | --- | --- |
| C1=Cc2nc1c(-c1ccccc1)c1ccc([nH]1)c(-c1ccccc1)c1nc(c(-c3ccccc3)c3ccc([nH]3)c2-c2ccccc2)CC1 [mTPC, meso-tetraphenylchlorine] | 0.38 |  |
| CC(=O)O[C@H]1C(=O)[C@@]2(C)[C@H]([C@H](OC(=O)c3ccccc3)[C@]3(O)C[C@H](OC(=O)[C@H](O)[C@@H](NC(=O)c4ccccc4)c4ccccc4)C(C)=C1C3(C)C)[C@]1(OC(C)=O)CO[C@@H]1C[C@@H]2O [paclitaxel] |  | absence of degradation |
